Values after ≈ are worked out from the molar mass of the structure shown.
What was measured:
[1] = tested on: MB 5919 Trans pFlp-Vim2 plasmid (OprD+, efflux+); assay: microbe, parasite or virus in culture; type: cell-based, Pseudomonas aeruginosa
[2] = tested on: Pseudomonas aeruginosa MB 5919 (OprD+, efflux+); assay: microbe, parasite or virus in culture; type: cell-based
[3] = tested on: MB 9799: MB 5890 Trans IMP1 plasmid (OprD+, efflux−); assay: microbe, parasite or virus in culture; type: cell-based, Pseudomonas aeruginosa
[4] = tested on: MB9862: MB 5890 Trans pFlp-Vim1 (OprD+, efflux−); assay: microbe, parasite or virus in culture; type: cell-based, Pseudomonas aeruginosa
[5] = tested on: MB 5890 Trans pFlp-Vim2 plasmid (OprD+, efflux−); assay: microbe, parasite or virus in culture; type: cell-based, Pseudomonas aeruginosa
[6] = tested on: Pseudomonas aeruginosa MB 5890 (OprD+, efflux−); assay: microbe, parasite or virus in culture; type: cell-based
[7] = tested on: MB 9861: MB 5919 Trans pFlp-Vim1 plasmid (OprD+, efflux+); assay: microbe, parasite or virus in culture; type: cell-based, Pseudomonas aeruginosa
[8] = tested on: MB 9798: MB 5919 Trans IMP1 plasmid (OprD+, efflux+); assay: microbe, parasite or virus in culture; type: cell-based, Pseudomonas aeruginosa
[9] = tested on: Pseudomonas aeruginosa MB9798 vs MB9799; details: fold difference between efflux+ (MB9798) and efflux− (MB9799) strains; imipenem at 2 μg/mL
Summary of the method: (§1)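 Microbroth MIC tests in PAO1-background strains with fixed imipenem and/or ceftazidime, usually at the CLSI breakpoint, plus fixed class A/C β-lactamase inhibitor against AmpC. MBL inhibitor titrated; concentration restoring susceptibility recorded and compared as fold difference between efflux+ MB9798 and efflux− MB9799.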

[10] = tested on: Pseudomonas aeruginosa efflux− (MB9799), IMP-1; type: cell-based; details: efflux− MB9799; imipenem at 2 μg/mL; in the presence of a class A, C, D serine β-lactamase inhibitor closely related to relebactam
Summary of the method: as §1

NDM-1 = NDM-1 (Klebsiella pneumoniae, UniProt C7C422); assay: biochemical; type: biochemical; details: fluorescence assay, CCF2-FA substrate, 1 pM enzyme, 2 hours at 25° C.; read-out: NDM-1 IC50
NDM-1, sequence (C7C422 whole entry, looked up, species assumed): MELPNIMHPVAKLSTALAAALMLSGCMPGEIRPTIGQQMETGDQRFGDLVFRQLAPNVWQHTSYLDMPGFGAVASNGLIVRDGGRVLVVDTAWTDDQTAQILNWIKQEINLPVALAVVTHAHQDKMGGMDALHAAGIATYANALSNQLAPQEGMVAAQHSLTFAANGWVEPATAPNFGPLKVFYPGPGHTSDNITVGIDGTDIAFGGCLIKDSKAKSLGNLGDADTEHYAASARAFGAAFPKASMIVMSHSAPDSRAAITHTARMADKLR
Summary of the method: (§2)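 Enzyme activity was measured by fluorescence using CCF2-FA, a cephalosporin-linked 7-hydroxycoumarin/fluorescein substrate, with inhibitor, metallo-β-lactamase and substrate incubated together for 2 hours at 25° C. IC50 came from a 4-parameter fit of inhibition versus log inhibitor concentration.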

IMP-1 = IMP-1 (Serratia marcescens, UniProt P52699); assay: biochemical; type: biochemical; details: fluorescence assay, CCF2-FA substrate, 2 pM enzyme, 2 hours at 25° C.; read-out: IMP-1 IC50
IMP-1, sequence (P52699 whole entry, looked up, species assumed): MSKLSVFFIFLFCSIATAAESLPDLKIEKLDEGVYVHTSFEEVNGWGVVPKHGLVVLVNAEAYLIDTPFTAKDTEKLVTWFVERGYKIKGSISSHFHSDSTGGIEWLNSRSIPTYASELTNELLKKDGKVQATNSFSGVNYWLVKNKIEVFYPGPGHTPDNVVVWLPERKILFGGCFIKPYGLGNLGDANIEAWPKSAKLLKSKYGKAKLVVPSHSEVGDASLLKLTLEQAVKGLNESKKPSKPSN
Summary of the method: as §2

VIM-1 = VIM-1 (Pseudomonas aeruginosa (strain ATCC 15692 / DSM 22644 / CIP 104116 / JCM 14847 / LMG 12228 / 1C / PRS 101 / PAO1), UniProt A0A0F7KYQ8); assay: biochemical; details: fluorescence assay, CCF2-FA substrate, 30 pM enzyme, 2 hours at 25° C.; read-out: VIM-1 IC50
Summary of the method: as §2

[11] = tested on: Klebsiella pneumoniae expressing VIM-1 (IHMA599644); type: cell-based; details: VIM-1 strain IHMA599644, with imipenem 1 μg/ml, 95% inhibition of bacterial growth
Summary of the method: (§3)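 Clinical isolates (E. coli NDM-1, S. marcescens IMP-1, K. pneumoniae VIM-1) were diluted 1:100 from saline suspension into 1.1×CAMHB and exposed to test compound with imipenem at 1 μg/ml. Plates were incubated at 35° C for 22 hours to 24 hours, and growth was read by absorbance.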

[12] = tested on: Escherichia coli expressing NDM-1 (CLB30005, CLB30016); type: cell-based; details: NDM-1 strain, with imipenem 1 μg/ml, 95% inhibition of bacterial growth
Summary of the method: as §3

[13] = tested on: Serratia marcescens expressing IMP-1 (CL5741); type: cell-based; details: IMP-1 strain CL5741, with imipenem 1 μg/ml, 95% inhibition of bacterial growth
Summary of the method: as §3

[14] = tested on: Pseudomonas aeruginosa efflux+ (MB9798), IMP-1; type: cell-based; design: Concentration of metallo-β-lactamase inhibitor which restores susceptibility of efflux + (MB9798) strain to imipenem: unit not given here; details: efflux+ MB9798; imipenem at 2 μg/mL; in the presence of a class A, C, D serine β-lactamase inhibitor closely related to relebactam
Summary of the method: as §1

[15] = MB 5919 Trans pFlp-Vim2 plasmid, OprD+, efflux+
[16] = MB 9799 = MB 5890 Trans IMP1 plasmid, OprD+, efflux−
[17] = MB9862 = MB 5890 Trans pFlp-Vim1, OprD+, efflux−
[18] = MB 5890 Trans pFlp-Vim2 plasmid, OprD+, efflux−
[19] = MB 9861 = MB 5919 Trans pFlp-Vim1 plasmid, OprD+, efflux+
[20] = MB 9798 = MB 5919 Trans IMP1 plasmid, OprD+, efflux+

SMILES	MIC [1, 15]	MIC ([2]; MB 5919, OprD+, efflux+)	MIC [3, 16]	MIC [4, 17]	MIC [5, 18]	MIC ([6]; MB 5890, OprD+, efflux−)	MIC [7, 19]	MIC [8, 20]	Efflux ratio [9]	Concentration of metallo-β-lactamase inhibitor which restores susceptibility of efflux − (MB9799) strain to imipenem [10]	IC50 (NDM-1)	IC50 (IMP-1)	IC50 (VIM-1)	Klebsiella pneumoniae MITC95 [11]	Escherichia coli MITC95 [12]	Serratia marcescens MITC95 [13]	Concentration of metallo-β-lactamase inhibitor which restores susceptibility of efflux + (MB9798) strain to imipenem [14]	other results
CC[C@H]1OC(=O)[C@H](C)[C@@H](O[C@H]2C[C@@](C)(OC)[C@@H](O)[C@H](C)O2)[C@H](C)[C@@H](O[C@@H]2O[C@H](C)C[C@H](N(C)C)[C@H]2O)[C@](C)(O)C[C@@H](C)CN(C)[C@H](C)[C@@H](O)[C@]1(C)O [Azithromycin]	–	–	–	–	–	–	–	–	–	–	–	–	–	–	–	–	–	MIC ([1]; Pseudomonas aeruginosa): 32 µg/mL (≈ 42.7 µM); MIC ([2]; Pseudomonas aeruginosa): 16 µg/mL (≈ 21.4 µM); MIC ([3]; Pseudomonas aeruginosa): 2 µg/mL (≈ 2.67 µM); MIC ([4]; Pseudomonas aeruginosa): 1 µg/mL (≈ 1.34 µM); MIC ([5]; Pseudomonas aeruginosa): 1 µg/mL (≈ 1.34 µM); MIC ([6]; Pseudomonas aeruginosa): 1 µg/mL (≈ 1.34 µM); MIC ([7]; Pseudomonas aeruginosa): 32 µg/mL (≈ 42.7 µM); MIC ([8]; Pseudomonas aeruginosa): 16 µg/mL (≈ 21.4 µM)
CC(C)(O/N=C(\C(=O)N[C@@H]1C(=O)N2C(C(=O)[O-])=C(C[n+]3ccccc3)CS[C@H]12)c1csc(N)n1)C(=O)O [CAZ, ceftazidime]	128 µg/mL (≈ 234 µM)	1 µg/mL (≈ 1.83 µM)	256 µg/mL (≈ 468 µM)	>256 µg/mL	64 µg/mL (≈ 117 µM)	0.5 µg/mL (≈ 0.915 µM)	>256 µg/mL	256 µg/mL (≈ 468 µM)	–	–	–	–	–	–	–	–	–	–
O=C(N[C@H](CO)[C@H](O)c1ccc([N+](=O)[O-])cc1)C(Cl)Cl [Chloroamphenicol, chloramphenicol]	–	–	–	–	–	–	–	–	–	–	–	–	–	–	–	–	–	MIC ([1]; Pseudomonas aeruginosa): > 64 µg/mL; MIC ([2]; Pseudomonas aeruginosa): > 64 µg/mL; MIC ([3]; Pseudomonas aeruginosa): 1 µg/mL (≈ 3.09 µM); MIC ([4]; Pseudomonas aeruginosa): 2 µg/mL (≈ 6.19 µM); MIC ([5]; Pseudomonas aeruginosa): 1 µg/mL (≈ 3.09 µM); MIC ([6]; Pseudomonas aeruginosa): 1 µg/mL (≈ 3.09 µM); MIC ([7]; Pseudomonas aeruginosa): > 64 µg/mL; MIC ([8]; Pseudomonas aeruginosa): > 64 µg/mL
CC1(NS(=O)(=O)c2ccc(-c3ccc(N)nc3)c(-c3nn[nH]n3)c2S(N)(=O)=O)CNC1.Cl.Cl [Example 497, 4-(6-aminopyridin-3-yl)-1-N-(3-methylazetidin-3-yl)-3-(2H-1,2,3,4-tetrazol-5-yl)benzene-1,2-disulfonamide hydrogen]	–	–	–	–	–	–	–	–	1.00	0.7813	0.131 nM	0.645 nM	0.219 nM	1.563 µM	0.3906 µM	0.7813 µM	0.7813	–
C[C@H](CCN)NS(=O)(=O)c1ccc(-c2ccc(N)nc2)c(-c2nn[nH]n2)c1S(N)(=O)=O [Example 498, (R)-N1-(4-aminobutan-2-yl)-4-(6-aminopyridin-3-yl)-3-(1H-tetrazol-5-yl)benzene-1,2-disulfonamide]	–	–	–	–	–	–	–	–	1.00	0.7813	0.0146 nM	0.0763 nM	0.0512 nM	3.125 µM	1.563 µM	1.563 µM	0.7813	–
C[C@@H](CCN)NS(=O)(=O)c1ccc(-c2ccc(N)nc2)c(-c2nn[nH]n2)c1S(N)(=O)=O [Example 499, (S)-N1-(4-aminobutan-2-yl)-4-(6-aminopyridin-3-yl)-3-(1H-tetrazol-5-yl)benzene-1,2-disulfonamide]	–	–	–	–	–	–	–	–	1.00	0.7813	0.555 nM	1.02 nM	0.291 nM	3.125 µM	0.7813 µM	1.563 µM	0.7813	–
NCCN1CC[C@@H](NS(=O)(=O)c2ccc(-c3ccc(N)nc3)c(-c3nn[nH]n3)c2S(N)(=O)=O)C1 [Example 500, (R)—N1-(1-(2-aminoethyl)pyrrolidin-3-yl)-4-(6-aminopyridin-3-yl)-3-(2H-tetrazol-5-yl)benzene-1,2-disulfonamide]	–	–	–	–	–	–	–	–	1.00	1.563	0.0347 nM	0.164 nM	0.071 nM	3.125 µM	1.563 µM	1.563 µM	1.563	–
C[C@@H](O)[C@H]1C(=O)N2C(C(=O)O)=C(SCCN=CN)C[C@H]12 [Imipenem, imipenem]	>64 µg/mL	4 µg/mL (≈ 13.4 µM)	32 µg/mL (≈ 107 µM)	64 µg/mL (≈ 214 µM)	32 µg/mL (≈ 107 µM)	2 µg/mL (≈ 6.68 µM)	>64 µg/mL	64 µg/mL (≈ 214 µM)	–	–	–	–	–	–	–	–	–	–
C[C@@H](O)[C@H]1C(=O)N2C(C(=O)O)=C(S[C@@H]3CN[C@H](C(=O)N(C)C)C3)[C@H](C)[C@H]12 [Meropenem, meropenem]	>64 µg/mL	2 µg/mL (≈ 5.22 µM)	64 µg/mL (≈ 167 µM)	64 µg/mL (≈ 167 µM)	32 µg/mL (≈ 83.4 µM)	0.5 µg/mL (≈ 1.3 µM)	>64 µg/mL	>64 µg/mL	–	–	–	–	–	–	–	–	–	–
CCN1CCN(C(=O)N[C@@H](C(=O)N[C@@H]2C(=O)N3[C@@H]2SC(C)(C)[C@@H]3C(=O)O)c2ccccc2)C(=O)C1=O [Piperalln, piperacillin]	>256 µg/mL	2 µg/mL (≈ 3.86 µM)	4 µg/mL (≈ 7.73 µM)	128 µg/mL (≈ 247 µM)	128 µg/mL (≈ 247 µM)	1 µg/mL (≈ 1.93 µM)	>256 µg/mL	4 µg/mL (≈ 7.73 µM)	–	–	–	–	–	–	–	–	–	–

Reference: US10221163B2 (priority 2015, dated 2019)
